Source: ChEMBL document CHEMBL1156050, “Synthesis and evaluation of 9-aminoacridines derived from benzyne click chemistry” (Bioorg Med Chem Lett, 2009)

What was measured:
HL-60 = experiment: Cytotoxicity against human HL60 cells; type: functional, cell-based
Nucleic Acid [1] = experiment: Binding affinity to DNA; type: nucleic-acid assay
Nucleic Acid [2] = experiment: Displacement of ethidium bromide from DNA by titration
[3] = Homo sapiens, HL-60, read-out: IC50

SMILES | IC50 (HL-60; [3]) | log K (Nucleic Acid [1]) | C50 (Nucleic Acid [2]) | IC50 (HL-60; hl-60)
CN(C)CCNC(=O)c1ccc2c(NCCn3nnc4ccccc43)c3ccccc3nc2c1 | 262 µM | 6.54 | 12.1 µM | 
CN(C)CCNC(=O)c1cccc2c(NCCN=[N+]=[N-])c3ccccc3nc12 | 0.72 µM | 6.49 | 13.6 µM | 
CN1CCN(C(=O)c2ccc3c(NCCn4nnc5ccccc54)c4ccccc4nc3c2)CC1 |  | 6.2 | 26.2 µM | Not Active
CN1CCN(C(=O)c2cccc3c(NCCN=[N+]=[N-])c4ccccc4nc23)CC1 | 52 µM |  | > 200 µM | 
CN1CCN(C(=O)c2ccc3c(NCCN=[N+]=[N-])c4ccccc4nc3c2)CC1 | 45.7 µM |  | > 200 µM | 
CN(C)CCNC(=O)c1cccc2c(NCCn3nnc4ccccc43)c3ccccc3nc12 | 23.4 µM | 6.14 | 30 µM | 
CN(C)CCNC(=O)c1ccc2c(NCCN=[N+]=[N-])c3ccccc3nc2c1 | 5.4 µM | 6.37 | 17.6 µM | 
CN1CCN(C(=O)c2cccc3c(NCCn4nnc5ccccc54)c4ccccc4nc23)CC1 |  | 5.65 | 93.2 µM | Not Active
